Data as given in patent US20260325538A1, “THERAPY” (priority 2023, published 2026).

Tests used:
[1] = system: Klebsiella pneumoniae Kpn St147 (NDM-1 and KPC-2); assay: MIC determination of ceftazidime with zinc chelator and avibactam (checkerboard, broth microdilution); type: cell-based; conditions: with CAZ and zinc chelator
Description: (§1) The fractional inhibitory concentration (FIC) is defined as the concentration that kills when used in combination with another agent divided by the concentration that has the same effect when used alone. The FIC index (FICI) for the combination of two agents is the sum of their individual FIC values. […] The European Committee for Antimicrobial Susceptibility Testing (EUCAST) of the European Society of Clinical Microbiology and Infectious Diseases (ESCMID) 2000 adopts the following definitions to determine the susceptibility of bacteria to an antimicrobial agent (see EUCAST Definitive Document E. Def 1.2: Terminology relating to methods for the determination of susceptibility of bacteria to antimicrobial agents. Clin. Microbiol. Infect. 2000; 6(9): 503-508): • FICI value≤0.5; synergy • 0.5<FICI value≤1; additive effect • 1<FICI value≤2; indifferent effect • FICI≥2; antagonistic effect
(§2) Antimicrobial susceptibility testing (AST) by broth microdilution was performed according to The European Committee on Antimicrobial Susceptibility Testing. Reading guide for broth microdilution. Version 4.0, 2022 (see: http://www.eucast.org).
Checkerboard 96-well plates (Corning 3788) were made by conducting serial two-fold dilutions of CAZ in cation-adjusted Mueller Hinton II broth (caMHB; Thermo Scientific, T3462), in columns across the microtiter plate (64-0.03 μg/ml). Additionally, avibactam was added to rows 3 to 8 in concentrations of 64, 16, 8, 4, 1 and 0.25 μg/ml, respectively. The zinc chelator was added to the wells of the plate, where applicable. […] The first row in all plates was used as a positive control for CAZ only, and the second row included the zinc chelator in addition to CAZ (no avibactam added to rows 1 or 2). The zinc chelator was added at the indicated concentration to rows 3-8 of plates 2 and 3.
(§3) The effect of the combination of zinc chelator/CAZ/avibactam was tested on a clinically isolated Klebsiella pneumoniae Kpn St147 actively constitutionally expressing the two resistance mechanisms NDM-1 and KPC-2 simultaneously. As a negative control, bacteria+CAZ was tested alone. As a positive control, bacteria+CAZ+zinc chelator was used. In Tables 3 and 4, concentrations (μg/ml) of CAZ are given in the top row left to right and avibactam concentrations (μg/ml) are given top to bottom in column 1.
(§4) ΣFICI=MICA(combination)/MICA (alone)+MICB(combination)/MICB (alone)+MICC(combination)/MICC (alone)

[2] = system: Klebsiella pneumoniae Kpn St147 (NDM-1 and KPC-2); assay: MIC determination of cefepime with zinc chelator and avibactam (checkerboard, broth microdilution); type: cell-based; conditions: with FEP and zinc chelator
Protocol: as §2
Checkerboard 96-well plates (Corning 3788) were made by conducting serial two-fold dilutions of cefepime in cation-adjusted Mueller Hinton II broth (caMHB; Thermo Scientific, T3462), in columns across the microtiter plate (64-0.03 μg/ml). Additionally, avibactam was added to rows 3 to 8 in concentrations of 64, 16, 8, 4, 1 and 0.25 μg/ml, respectively. The zinc chelator was added to the wells of the plate, where applicable. Three plates were made per experiment, one without the zinc chelator (plate 1), one with 16 μg/ml of the zinc chelator (plate 2) and one with 32 μg/ml of the zinc chelator (plate 3). The first row in all plates was used as a positive control for cefepime only, and the second row included the zinc chelator in addition to cefepime (no avibactam added to rows 1 or 2). The zinc chelator was added at the indicated concentration, to rows 3-8 of plates 2 and 3.
as §3, with “chelator/FEP/avibactam” for “chelator/CAZ/avibactam”, “bacteria+FEP” for “bacteria+CAZ”, “bacteria+FEP+zinc” for “bacteria+CAZ+zinc”, “1” for “3”, “2,” for “4,”, “FEP” for “CAZ”
as §1
To test for synergy, all data were subjected to the following formula in which A=zinc chelator; B=cefepime; and C=avibactam:
as §4

[3] = system: MBL class IMP; conditions: in combination with cefepime; cited from earlier work
[4] = system: MBL-producers; conditions: in combination with cefepime; cited from earlier work
[5] = system: NDM; conditions: cited from earlier work
[6] = system: gram-negative bacteria with MBL, for example Klebsiella pneumoniae, E. coli and Pseudomonas aeruginosa; conditions: meropenem used alone; cited from earlier work

NC(=O)[C@@H]1CC[C@@H]2CN1C(=O)N2OS(=O)(=O)O [Avibactam, avibactam]
FICI Avibactam ([1]; avibactam 0.25 μg/mL): 0.0001
FICI Avibactam ([1]; avibactam 1 μg/mL): 0.0005
FICI Avibactam ([1]; avibactam 4 μg/mL): 0.0020
FICI Avibactam ([1]; avibactam 8 μg/mL): 0.0039
FICI Avibactam ([1]; avibactam 16 μg/mL): 0.0078
FICI Avibactam ([2]; avibactam 0.25 μg/mL): 0.0001
FICI Avibactam ([2]; avibactam 1 μg/mL): 0.0005
FICI Avibactam ([2]; avibactam 4 μg/mL): 0.0020
FICI Avibactam ([2]; avibactam 8 μg/mL): 0.0039
FICI Avibactam ([2]; avibactam 16 μg/mL): 0.0078

NCCN[C@H]1CC[C@H](CC(=O)N[C@H]2Cc3cccc(C(=O)O)c3OB2O)CC1 [taniborbactam]
effect against MBL class IMP [3]: no effect
activity against MBL-producers [4]: potent activity

N[C@@H](CN[C@@H](CN[C@@H](CC(=O)O)C(=O)O)C(=O)O)C(=O)O [aspergillomarasmine A]
in vivo activity ([5]; mouse models): shown in vivo activity in mouse models
doses required to reverse carbapenem resistance ([5]; mouse, in vivo): relatively high doses

C[C@@H](O)[C@H]1C(=O)N2C(C(=O)O)=C(S[C@@H]3CN[C@H](C(=O)N(C)C)C3)[C@H](C)[C@H]12 [meropenem]
sensitivity of gram-negative bacteria with MBL [6]: resistant to the antibiotic
